Results published in PMC9860859, “Design, Development, and Optimisation of Smart Linker Chemistry for Targeted Colonic Delivery—In Vitro Evaluation” (Pharmaceutics, 2023).
Values joined by “and” are separate entries in the source; they are usually repeats but may differ in a detail not shown here. Identical values can stand only once. “Also recorded” adds a separate entry of the source. Values belong to the compound of their own block, whether it stands above or below them.

Key:
[1] = cited from earlier work
[2] = In vitro release assay of probes 13–17 by HPLC in buffers simulating the GIT
Method: (§1) Test solutions for probes 13–17 were prepared at 25 µM in a 1:1 mixture of ethanol and the respective buffer. Samples were incubated at 37 °C, then analysed by HPLC using an Agilent 1260 Infinity system, with conditions as follows: Agilent ZORBAX Eclipse Plus C18 Rapid Resolution column, 3.5 μm (4.6 × 100 mm), 95 Å pore size; column temperature, 35 °C; injection volume, 2 μL; flow rate, 1.0 mL min^−1; gradient elution from 5–100% solvent B (0.1% TFA in MeCN) in solvent A (0.1% TFA in ultrapure water) over 9 min, then hold for 1 min at 100% B; UV detection at two wavelengths (254 and 214 nm). The total run time was 10 min, and the retention times of the model compounds CTG and DCM-OH were 4.28 and 6.16 min, respectively. The retention times of probes 13–17 were 4.41, 4.53, 4.58, 5.97, and 6.04 min, respectively. Calibration curves of free fluorophore were constructed at pH values of 1.2, 5.0, 6.5, and 7.5 over the concentration range of 10–100 µM. A concentration of 25 μM was selected to run in the assay as it gave a good instrument response at the selected wavelength. The data at each pH value was fitted by linear regression, yielding equations of the form: y = ax ± b, where y is the peak area and x is the corresponding concentration in µM. Furthermore, the correlation coefficient (R^2) was ≥0.999 in each case, confirming the linearity of the method used under the specified conditions.
(§2) Release assays for probes 13–17 were performed in vitro using pH and temperature conditions chosen to simulate the GIT, with analysis by HPLC. We used KCl/HCl buffer (pH 1.2) and acetate buffer (pH 5.0) to simulate the pH of the stomach and the duodenum, respectively, while PBS (pH 7.5) and phosphate buffer (pH 6.5) were used to mimic the pH of the lower small intestine and the colon. The compounds were dissolved in 1:1 ethanol/buffer and incubated at 37 °C. Aliquots were taken at different time points and analysed by HPLC and LC/MS, as described in Section 2.2. […] Thus, the aforementioned compounds were incubated at pH 1.2 for 5 h to test their stability under conditions simulating the stomach. […] Then, the stability of the probes was tested in simulated duodenum conditions for 30–40 min, reflecting the reported transit time in the duodenum [26].

[3] = design: method as in PMID 33979164; details: cited from earlier work
[4] = design: method as in PMID 33979164; details: cited from earlier work; remark: listed apart in the source
[5] = design: method as in PMID 33979164; details: cited from earlier work; remark: listed apart in the source
[6] = In vitro release of Msl from Msl prodrugs by HPLC in buffers simulating the GIT; format: physicochemical; details: for release of Msl: colon-like conditions (pH 6.5); for Msl release / prodrug stability: 37 °C; for prodrug remained intact: simulated upper GIT conditions
Method: We chose Msl as a starting point for putting our prodrug concept into practice. […] Therefore, a new methodology was developed in which prodrug 21 was incubated in 1:1 ethanol/buffer and the HPLC analysis was run with UV detection at 310 nm, as detailed in the Supplementary Materials.
Then, the same compound was incubated at pH 7.5 and 6.5 to measure its stability under conditions mimicking the small intestine and colon, respectively. […] We believed that the formaldehyde released after cyclisation of the linker had initiated the side-reaction according to the mechanism described in detail in Supplementary Materials and supported by literature (Scheme S3).

[7] = as above; format: physicochemical; details: pH 7.5, 37 °C, over 2 h, water/buffer 1:1, small intestine-like
[8] = design: method as in PMID 2219958; details: cited from earlier work
[9] = buffer, pH 5
Method: as §1, §2

[10] = Fluorometric assay of the stability of probes 13 and 16 at pH 7.5 and 6.5; format: physicochemical
Text: page 2: 1. Stability of probe 13 at pH 7.5 and 6.5 using the spectrofluorometric assay. Principal: CTG's fluorescence is reversibly quenched or shifted to another wavelength when the phenol group is conjugated to the pH-sensitive linkers. Upon cyclization of the linker and the release of the free phenol, the fluorescence will be restored (on-mode). Fluorescence can be measured to follow the release of the payload, which is the fluorophore itself. The optical properties of the free fluorophore were measured in 50% DMSO/buffer at pHs 7.5, and 6.5. Since the fluorescence- based assay depends on the difference in fluorescence properties between the free fluorophore and its conjugates, the excitation wavelength must be carefully chosen. […] Secondly, the wavelength that gave a reasonable absorbance rather than maximum absorbance should be chosen to avoid exceeding the detector limits. Finally, a long distance between the excitation and emission wavelengths is preferable to minimize the background fluorescence. Accordingly, the in vitro tests were conducted by measuring the fluorescence at 555 nm after excitation of the probes at 500 nm, as this wavelength achieved the previous requirements. […] The microplate was incubated at 37 °C, and the fluorescence (em: 555 nm, ex: 500 nm) was recorded at every time point until the full release of CTG was obtained. […]

[11] = pH 1.2 (KCl/HCl buffer/EtOH 1:1), 5 h, 37 °C, 25 µM, stomach-like

Compound: Cc1cc(C(=O)O)ccc1-c1c2ccc(=O)cc-2oc2cc(O)ccc12 [CTG, 4-Carboxy-2-methyl Tokyo Green]
pKa [1]: 4.33

Compound: N#CC(C#N)=C1C=C(/C=C/c2ccc(O)cc2)Oc2ccccc21 [DCM-OH, Dicyanomethylene-4H-pyran dye]
pKa [1]: 7.21

Compound: Nc1ccc(O)c(C(=O)O)c1 [Msl, Mesalamine]
pKa of aromatic amino group (–NH3+) [1]: 6
pKa of carboxylic group (–COOH) [1]: 3
pKa of phenolic group (–OH) [1]: 13.9

half-life at 25 µM ([2]; PBS, pH 7.5): 2.4 ± 0.37 h
half-life at 25 µM ([2]; acetate buffer, pH 5): > 0.583 h
CTG payload released (sustained release) ([2]; colon-like conditions (pH 6.5), over 38 h): > 90%
half-life at 25 µM ([2]; phosphate buffer, pH 6.5): 13.2 ± 0.54 h
CTG payload protected from being released ([2]; small intestine-like conditions, pH 7.5, 2 h): 60%
Compound: C#CCCCNCCCCOC(=O)OCOc1ccc2c(-c3ccc(C(=O)O)cc3C)c3ccc(=O)cc-3oc2c1.Cl [Probe 15, N-(4-(((((9-(4-Carboxy-2-methylphenyl)-3-oxo-3H-xanthen-6yl)oxy)methoxy)carbonyl)oxy)butyl)pent-4-yn-1-aminium chloride]
fluorophore release / stability under stomach-like conditions ([2]; pH 1.2, 37 °C): excellent stability; also recorded: no detectable fluorophore release; also recorded: stable
fluorophore release / stability under duodenum-like conditions ([2]; pH 5.0, 37 °C): excellent stability; also recorded: no detectable fluorophore release; also recorded: stable

half-life at 25 µM ([2]; PBS, pH 7.5): 0.113 ± 0.012 h
half-life at 25 µM ([2]; acetate buffer, pH 5): 16.4 ± 1.52 h
fluorophore release [2, 11]: 0.5%
free fluorophore detected ([2]; pH 5.0 (acetate buffer/EtOH 1:1), at 35 min, 37 °C): 7%
time to full fluorophore release ([2]; pH 6.5, mimicking the colon, 37 °C): 170 min
time to achieve complete fluorophore release ([2]; pH 7.5, small intestine-like, 37 °C): 40 min
half-life at 25 µM ([2]; phosphate buffer, pH 6.5): 0.467 ± 0.0257 h
Compound: C#CCCCNCCCOC(=O)OCOc1ccc(/C=C/C2=CC(=C(C#N)C#N)c3ccccc3O2)cc1.Cl [Probe 17, (E)-N-(3-((((4-(2-(4-(Dicyanomethylene)-4H-chromen-2-yl)vinyl)phenoxy)methoxy)carbonyl)oxy)propyl)pent-4-yn-1-aminium chloride]

Compound: CNCCCOC(=O)OCOc1c(-c2ccc(Oc3ccc(OC(F)(F)F)cc3)cc2F)c(C)nc2cc(OC)c(Cl)cc12 [Prodrug 2]
stability under stomach-like conditions [3]: stable
aqueous solubility compared with the parent drug [4]: improved aqueous solubility
oral bioavailability compared with the parent drug [5]: enhanced oral bioavailability

Compound: C#CCCCNCCCCOC(=O)OCOc1ccc(N)cc1C(=O)O.Cc1ccc(S(=O)(=O)O)cc1.Cc1ccc(S(=O)(=O)O)cc1 [Prodrug 21, 3-Carboxy-4-((((4-(pent-4-yn-1-ylammonio)butoxy)carbonyl)oxy)methoxy)benzeneaminium-di(4-methylbenzenesulfonate)]
release of Msl ([6]; after 24 h): 36%
release of Msl ([6]; after 48 h): 61–68% and 61%
release of Msl ([6]; after 6 d): 93%
Msl release / prodrug stability ([6]; pH 1.2, 5 h, stomach-like): no Msl was released
Msl release / prodrug stability ([6]; pH 5.0, 35 min, duodenum-like): no Msl was released
prodrug remained intact [6]: 77–80%
Msl payload released [7]: 20%

release of Msl ([6]; after 48 h): 61–68% and 68%
Msl release / prodrug stability ([6]; pH 1.2, 5 h, stomach-like): fully intact
Msl release / prodrug stability ([6]; pH 5.0, 35 min, duodenum-like): fully intact
prodrug remained intact [6]: 77–80%
Msl payload released [7]: 23.5%
Compound: C#CCCCNCCCOC(=O)OCOc1ccc(N)cc1C(=O)O.Cc1ccc(S(=O)(=O)O)cc1.Cc1ccc(S(=O)(=O)O)cc1 [Prodrug 22, 3-Carboxy-4-((((3-(pent-4-yn-1-ylammonio)propoxy)carbonyl)oxy)methoxy)benzeneaminium-di(4-methylbenzenesulfonate)]

Compound: CCOC(=O)OC(C)OC1=C(C(=O)Nc2ccccn2)N(C)S(=O)(=O)c2ccccc21 (centres unmarked) [ampiroxicam]
t½ ([8]; pH 1): ≥ 50 h
t½ (hydrolysis) ([8]; pH 6.0–8.5): ≥ 8 h

half-life [9]: 0.343 ± 0.0035 h
time to conversion to the free fluorophore ([10]; at both pH 6.5 and pH 7.5, buffer/DMSO 1:1, 37 °C): ≤ 3 min
fluorophore release in fluorometric assay ([10]; pH 7.5 and 6.5, buffer/DMSO 1:1, 37 °C): released immediately
fluorophore release [2, 11]: 3%
fluorophore release ([2]; pH 5.0 (acetate buffer/EtOH 1:1), 30–40 min, 37 °C, duodenum-like): ~ 66%
Compound: (E)-N-(3-((((4-(2-(4-(dicyanomethylene)-4H-chromen-2-yl)vinyl)phenoxy)methoxy)carbonyl)oxy)propyl)pent-4-yn-1-aminium chloride [Probe 16]
